Source: US6997270B2, “Compounds and method for generating a highly efficient membrane in water-based drilling fluids” (Halliburton Energy Services, Inc., priority 2000, dated 2006)

Assays:
[1] = Membrane efficiency screening test (membrane efficiency screening equipment); conditions: about 25° Celsius, about 15 MPa
Procedure: Two types of test equipment are used for the present invention: (i) membrane efficiency screening equipment for tests conducted at 25° Celsius and the test solution at 15 MPa, and (ii) autonomous triaxial test equipment for tests conducted at temperatures above 25° Celsius and/or the test solution at 35 MPa.
The membrane efficiency screening equipment has six test cells. Six different test solutions can be tested under simulated downhole pressure conditions, at any one time with independent, individual test cell control. Referring to FIG. 4, the parts of the cell are shown as follows: Cell-1; Base-2; Bleed Port-3; Confining Fluid Port-4; Downstream Pressure Line (pore fluid)-5; Upstream Pressure Line (test solution)-6; Knurl-7; Top Platen-8; Membrane-9; Sample-10; Bottom Platen-11; O-Rings-12; Collar-13; and Seal-14.
The cell of FIG. 4 has a confining pressure and pore pressure capacity of 35 MPa and 20 MPa respectively. The confining pressure is applied with a Haskel pump and controlled with a high precision stepping motor pump control system. […] Two separate high-pressure gas cylinders provide the upstream and downstream pressures which are controlled by high pressure regulators.
The test procedures for the membrane efficiency screening equipment are as follows: • (a) bleed top (downstream) and bottom (upstream) platens 8 and 11 with simulated pore fluid; • (b) place a sample 10 (25 mm diameter and approximately 10 mm long) between the platens 8 and 11; • (c) jacket the sample in a 1.0 mm thick Viton membrane 9; • (d) mount O-rings 12 over the jacket on the platens 8 and 11; • (e) mount the cell 1; • (f) fill the cell 1 with water; • (g) apply a confining pressure of 20 MPa (via port 4); • (h) apply a back (upstream) pressure of 10 MPa (via line 6) and check for flow across the (upstream) platen 8; • (i) open the downstream pressure valve (on line 5) if the (downstream) pressure is less than 10 MPa; • (j) when the downstream pressure has stabilised at 10 MPa (pressure change <50 kPa/hour, i.e. sample has consolidated), increase the upstream pressure to 15 MPa; • (k) when the downstream pressure has increased by at least 2 MPa (pressure transmitted from the upstream end), reduce the upstream pressure to 10 MPa; • (l) when the downstream pressure has stabilised at 10 MPa (pressure change <50 kPa/hour, i.e. sample has reconsolidated), displace the pore fluid at the upstream end with the test solution at 15 MPa (water activity of test solution is not reduced with electrolyte, i.e. essentially the same as that of the shale); • (m) when the downstream pressure has increased and stabilised (pressure transmitted from the upstream end), displace the test solution (at the upstream end) with the lower water activity solution; • (n) adjust the lower water activity solution circulation rate; and • (o) terminate the test when a maximum decrease in the downstream pressure is observed.
The membrane efficiency obtained from a test is defined as percentage ratio of the maximum differential pressure developed across the shale sample (upstream pressure minus minimum downstream pressure during chemical potential stage) and the theoretical osmotic pressure of the test solution-shale system. The theoretical osmotic pressure is given by: [formula] where Π=osmotic pressure (kPa) • R=gas constant (0.083 liter atm mol^−1 ° K^−1) • T=absolute temperature (° K) • V=partial molar volume of water (0.018 litre mol^−1) • Asol=water activity of lower water activity solution • Ash=water activity of shale

[2] = Phase transition to a hexagonal phase (aqueous concentration); type: physicochemical; conditions: about pH 10; about 25° Celsius
[3] = cited from earlier work
[4] = Membrane efficiency test in autonomous triaxial test equipment (temperatures above 25° Celsius and/or 35 MPa)
Procedure: Based on the aforementioned fundamental understanding of the membrane generation mechanisms for acid-base species, we have discovered a range of novel compounds for use in water-based drilling fluids that have the capacity to generate a highly efficient membrane on the borehole wall in argillaceous formations. […] Two types of test equipment are used for the present invention: (i) membrane efficiency screening equipment for tests conducted at 25° Celsius and the test solution at 15 MPa, and (ii) autonomous triaxial test equipment for tests conducted at temperatures above 25° Celsius and/or the test solution at 35 MPa.
Referring to FIG. 5, the parts of the cell are shown as follows: Top Plate-20; Bottom Platen-21; Load Cell-22; Top Cap-23; Downstream Pore Pressure Port-24; Removable Cell Body-25; Radial Gauges-26; LVDT-27; Upstream Pore Pressure Port-28; Clamping Ring-29; Upstream Flush Pressure Port-30; O-Ring-31; Membrane-32; Temperature Sensor-33; and Sample 34.
The cell of FIG. 5 has a confining pressure and pore pressure capacity of 70 MPa.
The instruments used to measure the behaviour of the test sample 34 are as follows: • (a) two diametrically-opposed LVDTs (Linear Variable Differential Transformers) 27 mounted between the sample end platens to measure axial deformation of the sample 34; • (b) four cantilever (orthogonal) radial gauges 26 mounted at mid-height of the sample 34 to measure radial deformation; • (c) two thermal sensors 33 to measure sample 34 top and bottom temperatures; • (d) a load cell 22 located underneath the bottom platen 21 to measure axial deviatoric load (not used); • (e) a pressure transducer to measure cell (confining) pressure; and • (f) two pressure transducers to measure pore pressure at both ends of the sample 34.
A computer-controlled system was used to control the cell and pore pressures with stepping motor pumps, and to perform data acquisition. During the test, the cell temperature was maintained constant by placing the autonomous triaxial cell in a temperature-controlled oven. […]

CCCCCCCCCCCC(=O)[O-].C[N+](C)(C)C [tetramethylammonium laurate]
Membrane efficiency ([1]; about 5 to about 10 wt %, pH about 7.6 to about 11.5, water activity reduced with 33.4 wt % tetramethylammonium chloride): up to 57%
Change of membrane generation capacity with pH ([1]; for a given concentration): increased significantly when pH was increased from about 7.6 to about 11.5
Concentration at which phase transition to a hexagonal phase occurs [2]: about 20 wt %

sodium methyl siliconate
Membrane efficiency ([1]; about 5 to about 10 wt %, pH about 11.9 to about 12.6, 12 wt % sodium chloride or 16 wt % potassium chloride): up to 86%
Change of membrane generation capacity with pH ([1]; for a given concentration): increased greatly when pH was reduced from about 12.6 to about 11.9

C[Si](O)(O)O [methyl silanetriol]
pKa [3]: about 11

C[N+](C)(C)C.[Cl-] [tetramethylammonium chloride, reference compound]
Membrane efficiency ([1]; stock solution about 33.4 wt % tetramethylammonium chloride, pH not adjusted): about 8%

Oc1ccc2ccccc2c1 [2-naphthol]
Change of membrane generation capacity with pH ([1]; for a given concentration): did not change significantly between the pH range

CCCCCCCC/C=C\CCCCCCCC(=O)[O-].C[N+](C)(C)C [Tetramethylammonium oleate]
Membrane efficiency ([1]; about 5 to about 10 wt %, pH about 9, water activity reduced with 33.4 wt % tetramethylammonium chloride): up to 44%
Concentration at which phase transition to a hexagonal phase occurs [2]: about 20 wt %

silicic acid
Change of membrane generation capacity with pH ([1]; about 1 wt % and about 2.5 wt %): essentially the same between pH of about 11.15 and about 12.5
Change of membrane generation capacity with pH ([1]; about 5 wt % to about 10 wt %): increases with increase in pH
Membrane efficiency ([1]; all concentrations evaluated (about 1 to about 10 wt %), pH about 11.15 to about 12.5, 12 wt % sodium chloride): > 70%

[Cl-].[K+] [potassium chloride, reference compound]
Membrane efficiency ([1]; stock solution about 26.3 wt % potassium chloride, pH not adjusted): about 9%

Potassium methyl siliconate
Membrane efficiency ([1]; about 5 to about 10 wt %, pH about 11.95 to about 12.8, 12, 15 or 20 wt % sodium chloride): up to 80%
Change of membrane generation capacity with pH ([1]; for a given concentration): increased greatly when pH was reduced from about 12.8 to about 11.95
Effect of temperature on membrane generation capacity ([4]; temperature up to about 80° Celsius): not significantly affected by temperature of up to about 80° Celsius
Effect of test solution pressure on membrane generation capacity ([4]; test solutions at about 35 MPa): only slightly reduced
Membrane efficiency ([4]; test solutions at about 35 MPa, about 40° Celsius to about 80° Celsius): approximately 54%
